Assay results as given in US20030051262A1, “Animal models for neurodegenerative disease” (priority 1999, published 2003).
Peptide text beside a SMILES is read from it.

What was measured:
[1] = test system: rat hippocampus; assay: Direct injection into rat hippocampus, histological effects (length of hippocampal cell layers destroyed); assay type: in vivo; conditions: for extent of hippocampal damage: 68 mM in a volume of 1 μl into hippocampus
Experimental: AChE peptide was injected into rat hippocampus and subsequently the brains were examined under a light microscope. The hippocampus was-chosen as the most suitable brain structure in which to show effects of AChE peptide as it is very vulnerable to neurotoxins and damage from other causes such as ischaemia. Post mortem histological. examination or pre mortem brain scans reveal prominent decay of the hippocampus in Alzheimer brains.
Male Wistar or Dark Agouti (DA) rats were anaesthetised with Avertin and injected with 0.5 μl of 2 mM AChE peptide (DA rats received 1 μl of 1 mM) in the right hippocampus. An equivalent control injection was made in the left hippocampus. After recovery from the anaesthetic and a few days in their home cages rats were deeply anaesthetised and transcardially perfused with formalin preservative, the brains removed and prepared for microscopical examination. Sections of 50 μm were cut on a sliding microtome and stained with cresyl violet to show the nerve cells. The amount of neural damage was estimated by counting the length of hippocampal cell layers destroyed (quantified in terms of microscope graticule units).
A small number of injections were made into the hippocampus of DA rats with the reference neurotoxin NMDA (N-methyl D-aspartic acid) at an equivalent concentration to that of AChE peptide used above (1 μl of 1 mM).
(§1) Since the concentration of NMDA used to produce experimental neural destruction (as a tool in experimental psychology to examine the function of a particular brain region) is much higher (typically 68 mM) a small number of rats were injected with this larger amount, in a volume of 1 μl, in comparison with an equivalent amount of AChE peptide.

[2] = Post-operative body weight after injection into S/DB; assay type: in vivo, rat; conditions: 2 μl of 33 mM into S/DB, Wistar rats, weighed daily
Experimental: (§2) The experimental group (n=6 rats) received an injection of AChE peptide into the medial septum/vertical limb of the diagonal band (S/DB). Control rats (n=6 rats) received an equal amount of the vehicle, water, in the same way, while another group (n=5 rats) received an injection of the reference neurotoxin NMDA at an equivalent dose to that of AChE peptide (2 μl of 33 mM). Each injection was given slowly over 15 minutes through a 34 gauge stainless steel injection needle coupled by polyethylene tubing to a 10 μl Hamilton syringe. Co-ordinates used on the stereotaxic instrument (Kopf) were 0.7 mm anterior to bregma, 1.0 mm lateral to midline and 6.5 mm from skull surface at bregma. The incisor bar was set at −0.5 mm for all rats, resulting in approximately a level skull surface between the bregma and lambda sutures. The arm of the stereotaxic instrument was angled at 10 degrees to vertical to avoid damage to the sagittal sinus.
Post-operatively the rats were weighed every day. Approximately two weeks after operation they were again food restricted and tested for performance on the T-maze.

[3] = test system: medial septum/vertical limb of the diagonal band (S/DB); assay: Delayed non-matching to sample (DNMS) T-maze task after injection into S/DB; assay type: in vivo, rat; conditions: 2 μl of 33 mM into S/DB
Text: Wistar rats (175-200 g) were received from the suppliers (Harlan UK) and acclimated to the laboratory for three weeks before being trained on a delayed non-matching to sample (DNMS) task on an elevated wooden T-maze. In this task they are mildly food deprived and receive food pellets with enhanced flavour and nutritional content as rewards.
The DNMS task capitalises on the rat's innate tendency to alternate which cross arm of the T-maze it runs along; this derives from its normal foraging behaviour, where returning to a place from which it has recently eaten all the food is unlikely to pay dividends.
Each rat is placed at the start of the stem of the T-maze and allowed to run to retrieve a food pellet at the end of one cross arm. Access to the other cross arm is blocked. This block is then removed and the rat returned to the start. Normal rats choose to go to the opposite arm to that recently visited on this free choice part of the trial. After being allowed to consume their reward (if a correct choice was made) they are returned to their home cage and their cagemate is then tested in the same way. Typically a squad of ten rats is run in a “round robin’ fashion, so up to fifteen minutes intervenes between one trial and the next. Normal rats excel at this task once initial training (chiefly to familiarise them with the new smells on the maze and the elevated position off the floor) is complete.
The rats in the present experiment were given forty trials on the T-maze, then divided into groups matched for performance (all were above 90% correct). They were returned to unlimited food for a few days before undergoing surgery under Avertin anaesthesia.
The experimental group (n=6 rats) received an injection of AChE peptide into the medial septum/vertical limb of the diagonal band (S/DB). Control rats (n=6 rats) received an equal amount of the vehicle, water, in the same way, while another group (n=5 rats) received an injection of the reference neurotoxin NMDA at an equivalent dose to that of AChE peptide (2 μl of 33 mM). […]

[4] = test system: medial septum/vertical limb of the diagonal band (S/DB); assay: Locomotor activity cages after injection into S/DB; assay type: in vivo, rat; conditions: 2 μl of 33 mM into S/DB, two successive days
Experimental: as §2
After completion of T-maze testing rats were returned to a free feeding regimen before being tested on two successive days in standard locomotor activity cages. Each cage was equipped with two infrared beams to detect movement.

[5] = test system: medial septum/vertical limb of the diagonal band (S/DB); assay: Histology of septal region after injection into S/DB; assay type: in vivo, rat; conditions: for histological appearance of the septal area: 2 μl of 33 mM into S/DB, Example 2
Experimental: as §2
After a final weighing, rats were killed by stunning followed by decapitation. The hippocampus and cingulate/secondary motor cortex were rapidly removed and stored frozen at −80 degrees Celsius. The block of brain anterior to the hippocampus was placed in 30% sucrose formalin and left to fix for at least a week prior to sectioning on a microtome and staining with cresyl violet. Microscopical brain examination was subsequently performed as in earlier experiments.
Wistar rats were anaesthetised and injected as described in Example 2, with one of the following. AChE peptide, the equivalent peptide from BuChE, a scrambled version of the AChE peptide: HSWRAEVFHKYWSM, NMDA and water as a control. The number of rats in each group was between four and five.
Brain examination was performed as described in Example 2.

[6] = test system: nucleus basalis of Meynert (NBM); assay: Serial choice reaction task (attention) after injection into NBM; assay type: in vivo, rat; conditions: bilateral 2 μl of 16.5 mM into NBM, light stimulus 1.0 s
Experimental: Testing for loss of cognitive function reminiscent of loss of such function associated with Alzheimer's Disease in humans was carried out using a serial choice reaction task, a preferred form of task for testing for attentional deficits, as described by Higgs et al. (Higgs, S., Deacon, R. M. J. & Rawlins, J. N. P., European Journal of Neuroscience (2000)12, 1781-1788).
A rat testing cubicle with a retractable lever on the front wall was employed as illustrated in FIG. 11. The back wall was concave with three food magazines, one in each corner and one in the centre. A light was present within each corner magazine. Magazine entries were recorded by microswitches attached to panels covering the entrances. The entire apparatus was computer-controlled.
Rats are trained to press the lever when it is presented. […] The rat will find a reward (a 45 mg food pellet) respectively in the left, right or centre magazine tray.
A cohort of rats were trained on the attentional task (light stimulus duration 1.0 s). When performance was stable, they were divided into three matched groups, each with seven or more rats. Under deep anaesthesia, each rat was placed in a stereotaxic frame, with the incisor bar set at −3 mm to give a level head. Bilateral-injections, each of 2 μl, were made into the NBM area (see FIG. 13). The control group of rats received injections of water. […]

[7] = test system: choline acetyltransferase; assay: Cortical choline acetyltransferase (ChAT) level after NBM lesion; assay type: in vivo, rat; conditions: bilateral 2 μl of 16.5 mM into NBM
Experimental: After a period of post-operative testing, the rats were terminally anaesthetised and perfused intracardially with ice cold saline. The brain was removed and a portion of cortex (including the frontal, parietal and temporal areas, but excluding visual and cingulate cortex) was removed from each hemisphere and frozen. The remaining brain was preserved in formalin and subsequently coronally sectioned and stained with cresyl violet. The position and extent of the lesions was then determined by microscopical examination.
The frozen cortical tissue was used to determine the effectiveness of the NBM lesion. Using the method of Fonnum (J. Neurochem. (1975) 24, 407-409), the levels of the acetylcholine synthesising enzyme, choline acetyltransferase, (ChAT) were measured.
Since a proportion of this enzyme is due to the cholinergic innervation from the NBM, a decrease of ChAT would corroborate visualisation of a lesion at the site of injection in the NBM itself.

[8] = Body weight and condition after high-dose hippocampal injection; assay type: in vivo, rat; conditions: higher dose (68 mM, 1 μl) into hippocampus, one of two rats, 5 days after surgery
Experimental: as §1
One of the two rats given AChE peptide at this higher dose looked very sick 5 days after the surgery and was therefore deeply anaesthetised and the brain prepared for microscopy. […] The other rat survived 11 days until it was finally anaesthetised, but it too lost some weight. This supported informal observations from the earlier, low dose experiment that AChE peptide treated rats might lose more weight than is normal after such surgery.

[9] = test system: mice; assay: Injection of AChE peptide into mice; assay type: in vivo

Row | Structure (SMILES) | extent of hippocampal damage [1] | histological examination of hippocampal brain sections ([1]; DA rats, 1 μl of 1 mM into hippocampus) | post-operative weight loss and recovery [2] | T-maze performance in subsequent trials ([3]; after first block of ten trials) | T-maze performance with 45 second delay between sample and choice ([3]; delay about 45 s) | T-maze performance, twenty massed trials ([3]; massed trials) | locomotor activity (ANOVA, group effect) [4] | histological appearance of the septal area [5] | proportion of correct lever-light trials [6] | cholinergic loss in the cortex as measured by HPLC ChAT level [7] | mean units of damage (length of hippocampal cell layers destroyed) ([1]; Wistar rats, 0.5 μl of 2 mM in right hippocampus, P=0.008 vs control side) | units of damage (length of hippocampal cell layers destroyed, microscope graticule units) ([1]; most symmetrically injected DA rat, 1 μl of 1 mM in right hippocampus) | body weight after surgery [8] | tissue loss in the medial septal region ([5]; Example 3, Wistar rats injected as in Example 2) | lesion size relative to NMDA ([5]; S/DB region) | time for lesion to form after introduction into S/DB ([5]; S/DB region, time course by MRI) | neurotoxic effects in mice [9]
1 | CN[C@H](CC(=O)O)C(=O)O [NMDA, N-methyl D-aspartic acid] | more widespread | small areas of neural damage | lost more weight than controls | returned to control levels | non-significant decrease | little effect | not significantly different | only small effects | didn't produce a significant reduction | 12.1% |  |  |  |  |  |  | 
2 | CSCC[C@H](NC(=O)[C@H](Cc1ccc(O)cc1)NC(=O)[C@H](CO)NC(=O)[C@H](CO)NC(=O)[C@H](Cc1c[nH]c2ccccc12)NC(=O)[C@H](CCCNC(=N)N)NC(=O)[C@H](Cc1c[nH]cn1)NC(=O)[C@H](Cc1ccccc1)NC(=O)[C@H](CCC(=O)O)NC(=O)[C@H](C)N)C(=O)N[C@H](C(=O)N[C@@H](Cc1c[nH]cn1)C(=O)N[C@@H](Cc1c[nH]c2ccccc12)C(=O)N[C@@H](CCCCN)C(=O)O)C(C)C [AChE peptide, AEFHRWSSYMVHWK] (H-AEFHRWSSYMVHWK-OH) | local hippocampal damage |  | statistically significantly slower than either controls or NMDA rats to recover their weight |  |  |  |  | striking damage |  |  | 155.3 units | 119 units | Severe body weight loss | Significant tissue loss | an order of magnitude larger | less than an hour | Neurotoxic effects have also been observed
